# Test results from ChEMBL document CHEMBL1201862, “PubChem BioAssay data set” (2004).
# The source made the active and inactive calls.
# What was measured:
# [1] = A cytotoxicity screen of small molecule inhibitors of the PhoP region in Salmonella typhi identified in the primary screen. [Related pubchem assays: 1850, 1864, 1985 ]; type: functional
# [2] = target: T1, DNA repair protein RAD52 homolog (Homo sapiens, UniProt P43351); type: functional, biochemical
# T1 sequence (P43351 whole entry): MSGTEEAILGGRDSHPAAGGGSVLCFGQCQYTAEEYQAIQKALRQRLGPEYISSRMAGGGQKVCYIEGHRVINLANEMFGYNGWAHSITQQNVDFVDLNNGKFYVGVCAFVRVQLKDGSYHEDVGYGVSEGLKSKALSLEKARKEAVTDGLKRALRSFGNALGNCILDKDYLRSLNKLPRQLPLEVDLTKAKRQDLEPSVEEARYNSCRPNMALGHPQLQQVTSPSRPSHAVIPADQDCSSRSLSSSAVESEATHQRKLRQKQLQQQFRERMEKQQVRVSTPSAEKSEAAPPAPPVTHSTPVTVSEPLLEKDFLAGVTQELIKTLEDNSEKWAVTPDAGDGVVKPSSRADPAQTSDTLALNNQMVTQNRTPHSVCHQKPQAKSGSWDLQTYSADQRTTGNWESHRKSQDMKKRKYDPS
# [3] = target: T2, Calpain-2 catalytic subunit (Sus scrofa, UniProt P43367); assay: m-calpain protease blockers, concentration series – biochemical, fluorogenic peptide substrate, dose response (AID 1420); type: functional
# T2 sequence (P43367 whole entry): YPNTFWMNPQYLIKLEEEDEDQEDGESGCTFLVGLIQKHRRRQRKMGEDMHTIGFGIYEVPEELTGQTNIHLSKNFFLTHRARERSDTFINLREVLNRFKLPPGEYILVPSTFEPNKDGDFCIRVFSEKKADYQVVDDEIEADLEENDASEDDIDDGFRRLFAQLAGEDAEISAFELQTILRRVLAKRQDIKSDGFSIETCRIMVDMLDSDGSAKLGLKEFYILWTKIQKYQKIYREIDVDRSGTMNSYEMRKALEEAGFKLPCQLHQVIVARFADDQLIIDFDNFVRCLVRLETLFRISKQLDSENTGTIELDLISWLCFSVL
# [4] = fluconazole-exposed Candida albicans growth modulators – fluorescence, retest, confirmation (AID 2467); type: functional, cell-based
# [5] = NIH-3T3 fibroblast cytotoxicity, dose response, cytotoxicity control, cell-based, fluorescence, Alamar Blue, secondary assay (AID 2327); type: functional;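 further: NIH-3T3 mouse fibroblasts cultured with fluconazole at 8 µg/mL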
# Leucine aminopeptidase = target: T3, Leucine aminopeptidase (Plasmodium falciparum 3D7, UniProt Q8IL11); assay: P. falciparum M17LAP inhibitors, primary screen, biochemical, fluorogenic H-Leu-NHMec substrate, 1536-well (AID 1619); type: functional
# T3 sequence (Q8IL11 whole entry): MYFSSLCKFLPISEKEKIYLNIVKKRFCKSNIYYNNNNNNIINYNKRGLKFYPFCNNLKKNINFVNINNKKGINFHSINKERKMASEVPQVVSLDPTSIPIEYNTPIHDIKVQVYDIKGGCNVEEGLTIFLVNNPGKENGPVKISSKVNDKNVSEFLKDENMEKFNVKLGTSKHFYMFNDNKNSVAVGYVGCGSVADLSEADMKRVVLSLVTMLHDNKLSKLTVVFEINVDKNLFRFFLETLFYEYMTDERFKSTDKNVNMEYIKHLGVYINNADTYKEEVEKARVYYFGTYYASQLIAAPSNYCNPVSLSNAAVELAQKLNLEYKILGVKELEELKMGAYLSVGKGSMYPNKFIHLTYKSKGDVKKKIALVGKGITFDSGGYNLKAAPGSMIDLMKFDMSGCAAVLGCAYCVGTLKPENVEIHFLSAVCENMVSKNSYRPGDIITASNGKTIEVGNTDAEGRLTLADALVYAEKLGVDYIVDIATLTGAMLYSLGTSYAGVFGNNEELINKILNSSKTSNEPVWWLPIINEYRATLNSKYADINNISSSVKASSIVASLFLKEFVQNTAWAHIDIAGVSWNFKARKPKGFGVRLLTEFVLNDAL
# cells [6] = type: functional, cell-based
# cells [7] = type: functional, cell-based; remark: listed apart in the source
# Fatty acid synthase [8] = target: T4, Fatty acid synthase (Homo sapiens, UniProt P49327); assay: inhibition of human FAS-TE enzyme activity – biochemical, endpoint fluorescence intensity, uHTS hits, dose response (AID 624327); type: functional;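 further: fluorescence from hydrolysis of an O-methyl fluorescein acyl ester substrate by the enzyme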
# Fatty acid synthase [9] = target: T4, Fatty acid synthase; assay: inhibition of human FAS-TE enzyme activity – biochemical, kinetic fluorescence intensity, dose response (AID 624326); type: functional;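 further: rate of fluorescence rise from hydrolysis of a fluorogenic O-methyl fluorescein ester substrate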
# [10] = microbe, parasite or virus in culture; type: functional; conditions: Mycobacterium tuberculosis
# [11] = Luminescence Cell-Based Dose Retest to Confirm Inhibitors of Cancer Stem Cells. [Related pubchem assays (depositor defined):AID2717, AID2721]; type: functional; conditions: Homo sapiens
# INS1 = assay: INS-1E survival protection against cytokine death – cell-based, luminescence, retest, dose response (AID 449756); type: functional; conditions: Rattus norvegicus;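 further: cell death triggered by IL-1 beta plus TNF-alpha plus IFN-gamma mixture; protective hits raise ATP signal compared with cytokine alone wells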
# [12] = viability of HCT116 lacking mutant beta-catenin – cell-based, human colon tumor, dose response (AID 1045); type: functional;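 further: HCT116 colon tumor cells with beta catenin knocked out; cells exposed to compound for 60 hours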
# [13] = viability of PTEN-deleted HCT116 cells – cell-based, HCT116 PTEN knockout, dose response (AID 1047); type: functional;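 further: HCT116 colon tumor cells with PTEN knocked out; cells exposed to compound for 60 hours before readout; potency for loss of cell viability measured by luminescence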
# T4 sequence (P49327 whole entry): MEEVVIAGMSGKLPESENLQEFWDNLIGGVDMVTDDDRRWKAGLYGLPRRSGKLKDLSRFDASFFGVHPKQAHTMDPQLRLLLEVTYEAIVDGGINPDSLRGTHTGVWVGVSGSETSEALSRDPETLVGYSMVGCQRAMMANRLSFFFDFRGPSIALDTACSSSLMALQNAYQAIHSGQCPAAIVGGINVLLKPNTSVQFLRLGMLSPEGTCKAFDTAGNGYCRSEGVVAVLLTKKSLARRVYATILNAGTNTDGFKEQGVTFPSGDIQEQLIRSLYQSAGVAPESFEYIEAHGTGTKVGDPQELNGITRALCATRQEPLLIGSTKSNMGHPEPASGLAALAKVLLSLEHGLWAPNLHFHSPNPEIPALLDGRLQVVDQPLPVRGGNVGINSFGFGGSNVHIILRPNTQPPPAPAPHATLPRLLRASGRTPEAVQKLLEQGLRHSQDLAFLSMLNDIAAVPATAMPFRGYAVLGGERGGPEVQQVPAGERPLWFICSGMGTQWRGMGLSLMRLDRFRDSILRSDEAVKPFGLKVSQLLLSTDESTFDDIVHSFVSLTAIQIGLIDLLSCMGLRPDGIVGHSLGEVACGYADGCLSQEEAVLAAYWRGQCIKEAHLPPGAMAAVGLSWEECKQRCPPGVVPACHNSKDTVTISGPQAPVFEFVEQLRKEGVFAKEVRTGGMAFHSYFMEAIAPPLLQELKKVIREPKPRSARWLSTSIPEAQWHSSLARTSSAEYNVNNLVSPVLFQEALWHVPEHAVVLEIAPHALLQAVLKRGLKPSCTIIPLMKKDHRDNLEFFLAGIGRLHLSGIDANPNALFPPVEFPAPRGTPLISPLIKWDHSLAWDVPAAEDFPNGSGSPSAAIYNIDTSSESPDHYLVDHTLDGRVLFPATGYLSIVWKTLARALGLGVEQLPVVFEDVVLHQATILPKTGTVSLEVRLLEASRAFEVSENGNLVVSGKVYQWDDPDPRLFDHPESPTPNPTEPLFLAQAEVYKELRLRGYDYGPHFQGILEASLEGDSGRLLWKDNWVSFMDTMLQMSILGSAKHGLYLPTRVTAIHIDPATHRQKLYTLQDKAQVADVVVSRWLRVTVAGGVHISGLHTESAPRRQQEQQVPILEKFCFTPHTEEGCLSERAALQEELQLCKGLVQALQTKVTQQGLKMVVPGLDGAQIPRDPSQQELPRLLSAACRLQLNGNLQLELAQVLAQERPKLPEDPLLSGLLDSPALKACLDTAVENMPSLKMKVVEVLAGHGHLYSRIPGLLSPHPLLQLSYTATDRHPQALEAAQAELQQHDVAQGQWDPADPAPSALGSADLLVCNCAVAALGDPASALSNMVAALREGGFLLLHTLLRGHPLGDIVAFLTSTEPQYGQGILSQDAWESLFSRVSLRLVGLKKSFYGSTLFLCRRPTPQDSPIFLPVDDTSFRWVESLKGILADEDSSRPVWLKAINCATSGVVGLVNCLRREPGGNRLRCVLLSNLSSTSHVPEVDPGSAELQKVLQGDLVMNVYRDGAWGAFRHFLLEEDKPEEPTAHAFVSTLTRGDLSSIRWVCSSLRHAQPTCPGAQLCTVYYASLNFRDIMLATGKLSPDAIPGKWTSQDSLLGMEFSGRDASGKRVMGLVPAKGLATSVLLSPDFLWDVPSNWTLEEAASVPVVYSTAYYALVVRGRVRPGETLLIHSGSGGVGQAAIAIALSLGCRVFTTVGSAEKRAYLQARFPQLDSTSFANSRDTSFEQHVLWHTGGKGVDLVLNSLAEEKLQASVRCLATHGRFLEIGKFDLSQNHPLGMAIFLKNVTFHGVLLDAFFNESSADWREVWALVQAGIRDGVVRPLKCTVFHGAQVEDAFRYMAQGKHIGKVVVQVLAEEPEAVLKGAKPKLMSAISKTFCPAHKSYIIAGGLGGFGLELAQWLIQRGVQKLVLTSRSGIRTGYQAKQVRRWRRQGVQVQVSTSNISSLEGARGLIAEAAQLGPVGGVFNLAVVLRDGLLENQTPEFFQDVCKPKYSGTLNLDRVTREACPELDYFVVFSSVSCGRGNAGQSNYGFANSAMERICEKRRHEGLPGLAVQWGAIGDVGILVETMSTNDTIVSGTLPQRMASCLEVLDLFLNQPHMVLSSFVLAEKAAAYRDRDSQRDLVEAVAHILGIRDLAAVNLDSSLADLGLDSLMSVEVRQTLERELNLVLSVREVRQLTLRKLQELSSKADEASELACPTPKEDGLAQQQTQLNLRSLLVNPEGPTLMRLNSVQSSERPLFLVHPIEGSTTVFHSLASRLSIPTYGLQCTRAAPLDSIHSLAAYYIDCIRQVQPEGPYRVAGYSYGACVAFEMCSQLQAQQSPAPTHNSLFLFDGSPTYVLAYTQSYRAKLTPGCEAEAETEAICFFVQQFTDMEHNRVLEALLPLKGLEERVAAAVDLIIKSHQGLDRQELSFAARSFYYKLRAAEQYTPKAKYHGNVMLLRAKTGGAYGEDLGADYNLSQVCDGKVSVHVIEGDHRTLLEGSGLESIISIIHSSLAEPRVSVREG
smiles,measurement,setting,value
CCCCNC(=O)CCC(=O)Nc1ccc2nc(N3CCC(C)CC3)cc(C)c2c1,EC50,[1],> 50 µM (active)
Cc1cccc(NS(=O)(=O)c2ccc3c(c2)OCCO3)c1,EC50,[1],> 50 µM (active)
CCN(CC)CCNc1nc(-c2cccs2)c(CC(=O)O)s1,AC50,[2],14 µM (active)
O=C(CSc1cccc[n+]1[O-])c1cc(Cl)ccc1Cl,IC50,[3],> 50 µM (not active)
same,EC50,[4],> 38 µM (not active)
same,EC50,[5],35.8 µM (active)
O=C(CN1C(=O)S/C(=C/C=C/c2ccccc2)C1=O)Nc1ccc(C(=O)O)cc1,IC50,Leucine aminopeptidase,24.5 µM (active)
CN(C)c1ccc(CNC(=O)CCS(=O)(=O)c2ccc3c(c2)oc(=O)n3C)cc1,EC50,cells [6],> 350 µM (not active)
same,EC50,cells [7],> 350 µM (not active)
S=C(Nc1ccccc1Cl)N(Cc1ccccc1)Cc1ccccn1,EC50,[1],> 50 µM (active)
CC(C(=O)NCCC1=CCCCC1)c1ccc([N+](=O)[O-])cc1 (configuration not stated),IC50,Fatty acid synthase [8],5.76 µM (active)
same,IC50,Fatty acid synthase [9],5.99 µM (active)
CCCCCC(=O)NNC(=S)NC(=O)c1cccc([N+](=O)[O-])c1,EC50,cells [6],> 350 µM (not active)
same,IC50,Leucine aminopeptidase,24.4 µM (active)
same,EC50,cells [7],> 350 µM (not active)
c1ccc(CN2CCC(N3CCN(Cc4ccc5c(c4)OCO5)CC3)CC2)cc1,EC50,[1],> 50 µM (active)
COc1ccccc1C1c2ccc3ccccc3c2Oc2ncn(CCN(C)C)c(=N)c21 (configuration not stated),AC50,[2],20.6 µM (active)
same,CC50,[10],5.8 µM (active)
same,AC50,[11],2.72 µM (active)
COc1ccc([N+](=O)[O-])cc1NC(=O)C(C)OC(=O)/C=C/c1ccco1 (configuration not stated),IC50,Fatty acid synthase [8],3.26 µM (active)
same,IC50,Fatty acid synthase [9],6.45 µM (active)
CCOC(=O)c1c(NC(=O)c2cc(-c3ccc(Cl)s3)nc3ccccc23)sc(C(N)=O)c1C,AC50,INS1,7.98 µM (active)
same,EC50,[12],7.35 µM (active)
same,EC50,[13],5.74 µM (active)
Cc1ccc2c(c1)c1c3n2CCN(C(=O)CN2CCN(C)CC2)C3CCC1 (configuration not stated),EC50,[12],16.7 µM (active)
same,EC50,[13],16.1 µM (active)
NC1(C(=O)O)CCCc2ccc(N(CCCl)CCCl)cc21 (configuration not stated),AC50,[2],16 µM (active)
